Data as given in PMC3760249 (mBio, 2013).

How the values were obtained:
[1] = biological target: T1, AppA (Cereibacter sphaeroides, UniProt Q53119); experiment: biochemical
T1 sequence (Q53119 1-450): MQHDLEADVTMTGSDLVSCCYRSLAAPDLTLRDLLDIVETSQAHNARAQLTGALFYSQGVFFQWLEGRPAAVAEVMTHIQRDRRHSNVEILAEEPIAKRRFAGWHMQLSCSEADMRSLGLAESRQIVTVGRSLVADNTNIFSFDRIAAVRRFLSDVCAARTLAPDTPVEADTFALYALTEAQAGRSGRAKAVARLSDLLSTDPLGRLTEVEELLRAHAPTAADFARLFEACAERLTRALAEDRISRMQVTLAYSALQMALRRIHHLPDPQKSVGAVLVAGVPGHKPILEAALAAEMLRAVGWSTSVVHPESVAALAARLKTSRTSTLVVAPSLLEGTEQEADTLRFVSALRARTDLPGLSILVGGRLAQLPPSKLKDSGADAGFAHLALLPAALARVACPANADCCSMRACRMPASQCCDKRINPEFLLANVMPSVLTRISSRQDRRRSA

[2] = biological target: T1, AppA; experiment: co-purification, flavin absorption spectrum; type: binding; settings: BLUF domain cofactor as purified

C=CC1=C(C)C2=Cc3c(C=C)c(C)c4[n]3[Fe+][n]3c(c(C)c(CCC(=O)O)c3=CC3=NC(=C4)C(C)=C3CCC(=O)O)=CC1=N2 [heme]
Kd [1]: 1250 ± 440 nM

Cc1cc2nc3c(=O)[nH]c(=O)nc-3n(C[C@H](O)[C@H](O)[C@H](O)COP(=O)(O)OP(=O)(O)OC[C@H]3O[C@@H](n4cnc5c(N)ncnc54)[C@H](O)[C@@H]3O)c2cc1C [flavin adenine dinucleotide]
co-purification, flavin absorption spectrum [2]: it does contain flavin adenine dinucleotide (FAD) as the BLUF domain cofactor
